In patent US12338243B2, “P2X7 modulators” (JANSSEN PHARMACEUTICA NV, priority 2014, dated 2025):
“And” between values parts separate entries of the source, which are not always exact repeats. Equal values may be shown once.

Key:
[1] = Rat plasma radiometabolite analysis; assay type: in vivo; settings: 30 min after radiotracer injection, n=2
Procedure: (§1) HPLC analysis was performed on a LaChrom Elite HPLC system (Hitachi, Armstadt, Germany) connected to a UV spectrometer set at 220 nm. For the analysis of radiolabeled compounds, the HPLC eluate, after passage through the UV detector, was led over a shielded 3-inch NaI(Tl) scintillation detector connected to a multichannel analyser (Gabi box, Raytest, Straubenhardt, Germany). The output signal was recorded and analysed using a GINA Star data acquisition system (Raytest, Straubenhardt, Germany). Radioactivity in samples of biodistribution studies, cell uptake experiments and radiometabolite analysis was quantified using an automated gamma counter equipped with a 3-inch NaI(Tl) well crystal coupled to a multichannel analyser (Wallac 2480 Wizard, Wallac, Turku, Finland). Results were corrected for background radiation, physical decay and counter dead time.
Radiometabolites of [^11C]55 in plasma of normal female Wistar rats (n=2) were quantified at 30 min after tracer injection. […] The fraction of more lipophilic radiometabolites eluting after the intact tracer was negligible (<1.5%).

[2] = Biodistribution studies of radiotracer in healthy female Wistar rats; assay type: in vivo; settings: for % ID blood: blood mass assumed 7% of body mass; for SUV blood / % ID carcass / % ID cerebellum / SUV cerebellum / % ID cerebrum / SUV cortex / % ID heart / SUV hippocampus / % ID intestines / % ID kidneys / % ID liver / % ID lungs / SUV rest of cerebrum / % ID spleen + pancreas / % ID stomach / SUV striatum / % ID urine / SUV whole cerebrum: mean ± SD, n = 3
Procedure: as §1
Animals were housed in individually ventilated cages in a thermoregulated (˜22° C.), humidity-controlled facility under a 12 h/12 h light/dark cycle with access to food and water ad libitum. All animal experiments were conducted according to the Belgian code of practice for the care and use of animals, after approval from the KU Leuven University Ethics Committee for Animals.
The biodistribution studies were performed in healthy female Wistar rats (body weight, 185-220 g) at 2, 30 and 60 min after tracer injection (n=3/time point). […] The animals were sacrificed by decapitation at the indicated time points. Blood and major organs were collected in tared tubes and weighed. The radioactivity in the dissected organs and blood was counted using an automated gamma counter. For calculation of total blood radioactivity, blood mass was assumed to be 7% of the body mass.

C[C@H]1Cn2c(nnc2-c2cc(O[11CH3])ccn2)CN1C(=O)c1cccc(Cl)c1Cl [[^11C]55, (S)-(2,3-dichlorophenyl)(3-(4-[^11C]methoxypyridin-2-yl)-6-methyl-5,6-dihydro-[1,2,4]triazolo[4,3-a]pyrazin-7(8H)-yl)methanone]
recovered radioactivity in the plasma in the form of intact tracer [1]: 70±6% | % ID blood ([2]; 2 min after tracer injection): 10.0 % ID and 10.0 ± 2.4 % ID | SUV blood ([2]; 2 min after tracer injection): 1.42 ± 0.3 | % ID blood ([2]; 30 min after tracer injection): 5.2 ± 0.6 % ID | SUV blood ([2]; 30 min after tracer injection): 0.74 ± 0.1 | % ID blood ([2]; 60 min after tracer injection): 5.3 % ID and 5.3 ± 0.6 % ID | SUV blood ([2]; 60 min after tracer injection): 0.75 ± 0.1 | % ID carcass ([2]; 2 min after tracer injection): 35.1 ± 4.1 % ID | % ID carcass ([2]; 30 min after tracer injection): 46.9 ± 0.5 % ID | % ID carcass ([2]; 60 min after tracer injection): 43.2 ± 5.3 % ID | % ID cerebellum ([2]; 2 min after tracer injection): 0.1 ± 0.0 % ID | SUV cerebellum ([2]; 2 min after tracer injection): 1.02 ± 0.1 | % ID cerebellum ([2]; 30 min after tracer injection): 0.1 ± 0.0 % ID | SUV cerebellum ([2]; 30 min after tracer injection): 0.53 ± 0.0 | % ID cerebellum ([2]; 60 min after tracer injection): 0.1 ± 0.0 % ID | SUV cerebellum ([2]; 60 min after tracer injection): 0.59 ± 0.1 | % ID cerebrum ([2]; 2 min after tracer injection): 0.5 ± 0.0 % ID | % ID cerebrum ([2]; 30 min after tracer injection): 0.3 ± 0.0 % ID | % ID cerebrum ([2]; 60 min after tracer injection): 0.3 ± 0.1 % ID | SUV cortex ([2]; 2 min after tracer injection): 0.80 ± 0.2 | SUV cortex ([2]; 30 min after tracer injection): 0.58 ± 0.1 | SUV cortex ([2]; 60 min after tracer injection): 0.65 ± 0.1 | % ID heart ([2]; 2 min after tracer injection): 1.3 ± 0.2 % ID | % ID heart ([2]; 30 min after tracer injection): 0.4 ± 0.0 % ID | % ID heart ([2]; 60 min after tracer injection): 0.4 ± 0.1 % ID | SUV hippocampus ([2]; 2 min after tracer injection): 0.74 ± 0.0 | SUV hippocampus ([2]; 30 min after tracer injection): 0.43 ± 0.0 | SUV hippocampus ([2]; 60 min after tracer injection): 0.52 ± 0.1 | % ID intestines ([2]; 2 min after tracer injection): 14.0 ± 1.8 % ID | % ID intestines ([2]; 30 min after tracer injection): 23.8 ± 1.1 % ID | % ID intestines ([2]; 60 min after tracer injection): 26.7 ± 9.1 % ID | % ID kidneys ([2]; 2 min after tracer injection): 4.5 ± 0.8 % ID | % ID kidneys ([2]; 30 min after tracer injection): 1.9 ± 0.1 % ID | % ID kidneys ([2]; 60 min after tracer injection): 1.8 ± 0.2 % ID | injected dose retained in the liver and the intestines ([2]; liver and intestines, 60 min after tracer injection): 43.8% | % ID liver ([2]; 2 min after tracer injection): 34.8 ± 2.1 % ID | % ID liver ([2]; 30 min after tracer injection): 19.4 ± 0.5 % ID | % ID liver ([2]; 60 min after tracer injection): 17.1 ± 0.3 % ID | % ID lungs ([2]; 2 min after tracer injection): 2.1 ± 0.3 % ID | % ID lungs ([2]; 30 min after tracer injection): 1.0 ± 0.1 % ID | % ID lungs ([2]; 60 min after tracer injection): 1.1 ± 0.4 % ID | SUV rest of cerebrum ([2]; 2 min after tracer injection): 0.86 ± 0.0 | SUV rest of cerebrum ([2]; 30 min after tracer injection): 0.46 ± 0.0 | SUV rest of cerebrum ([2]; 60 min after tracer injection): 0.53 ± 0.1 | % ID spleen + pancreas ([2]; 2 min after tracer injection): 1.4 ± 0.4 % ID | % ID spleen + pancreas ([2]; 30 min after tracer injection): 0.6 ± 0.1 % ID | % ID spleen + pancreas ([2]; 60 min after tracer injection): 0.6 ± 0.1 % ID | % ID stomach ([2]; 2 min after tracer injection): 1.7 ± 0.3 % ID | % ID stomach ([2]; 30 min after tracer injection): 2.1 ± 1.0 % ID | % ID stomach ([2]; 60 min after tracer injection): 5.1 ± 3.4 % ID | SUV striatum ([2]; 2 min after tracer injection): 0.78 ± 0.0 | SUV striatum ([2]; 30 min after tracer injection): 0.45 ± 0.0 | SUV striatum ([2]; 60 min after tracer injection): 0.50 ± 0.1 | total initial brain uptake ([2]; total brain, 2 min after injection): 0.6% | total brain uptake ([2]; total brain, 60 min after tracer injection): 0.4% | % ID in urine and kidneys ([2]; urine and kidneys, 60 min after injection): 2.9 % ID | % ID urine ([2]; 2 min after tracer injection): 0.1 ± 0.1 % ID | % ID urine ([2]; 30 min after tracer injection): 0.9 ± 0.0 % ID | % ID urine ([2]; 60 min after tracer injection): 1.1 ± 0.5 % ID | SUV whole cerebrum ([2]; 2 min after tracer injection): 0.83 ± 0.0 | SUV whole cerebrum ([2]; 30 min after tracer injection): 0.46 ± 0.0 | SUV whole cerebrum ([2]; 60 min after tracer injection): 0.54 ± 0.1
